# ChEMBL document CHEMBL1150209, “(-)-Grandisin form Cryptocarya crassinervia” (J Nat Prod, 1991)
# Columns and labels:
# [1] = system: MCF7; experiment: Cytotoxicity against human MCF7 cells; type: functional; conditions: read-out: ED50 (the source's name)
# [2] = system: A549; experiment: Cytotoxicity against human A549 cells; type: functional; conditions: read-out: ED50 (the source's name)
# [3] = system: HT-29; experiment: Cytotoxicity against human HT-29 cells; type: functional; conditions: read-out: ED50 (the source's name)
# [4] = Toxicity against brine shrimp; type: organism-based; conditions: artemia, in vivo
smiles,measurement,setting,value
COc1cc([C@@H]2O[C@@H](c3cc(OC)c(OC)c(OC)c3)[C@H](C)[C@H]2C)cc(OC)c1OC [GRANDISIN],EC50,[1],> 10 µg/mL
same,EC50,[2],> 10 µg/mL
same,EC50,[3],> 10 µg/mL
same,LC50,[4],21 µg/mL
